Entries after “also recorded” stand apart in the source; their conditions may differ. Read-outs that look alike come from different tables or passages of the source.
Legend:
[1] = tested on: Annual bluegrass; test: Weed and crop Petri dish bioassay, radicle length; assay type: in vivo, Poa annua L.
Experimental: (§1) m-Tyrosine activity was bioassayed using selected weed and crop species. Growth inhibition as measured by radicle elongation was evaluated in dandelion (Taraxacum officinale Weber in […].), large crabgrass (Digitaria sanguinalis (L.) Scop.), velvetleaf (Abutilon theophrasti Medicus), black medic (Medicago lupulina L.), curly cress (Lepidium sativum L.), bamyardgrass (Echinochloa crus-galli.(L.) Beauv.), lettuce (Lactuca sativa L.), purslane (Portulaca oleracea L.), annual bluegrass (Poa annua L.), birdsfoot trefoil (Lotus corniculatus L.), broadleaf plantain (Plantago major L.), mouseear chickweed (Cerastium vulgatum L.), common chickweed (Stellaria media (L.) Vill.), white clover (Trifolium repens L.), wheat (Triticum aestivum L.), tomato (Lycopersicon esculentum var. esculentum P. Mill.), tobacco (Nicotiana tobacum L.), and sorghum sudangrass hybrid (Sorghum bicolor x Sudanese). Weeds were purchased from HerbiSeeds, England, tomato seeds were purchased from Agway (Ithaca N.Y.), and wheat, sudex and tobacco where donated by Pioneer Seeds (Johnson, Iowa). Seeds were sterilized by a water: ethanol mixture (1:1) for one minute and rinsed three times thoroughly in distilled water. The simple phytotoxicity bioassay utilized consisted of the evaluation of radicle length of ten sterilized seeds of each weed/crop deposited on a filter paper containing the appropriate m-tyrosine test solution in 4.5 cm Petri dishes. […] A 1000 μL aliquot of the appropriate test solution was added to individual Petri dishes lined with Whatman No. 1 filter paper. Control dishes received 1000 μL of water. After seeds were placed on moistened filter paper, Petri dishes were transferred to a controlled environment with a light regime of 45,33 photon m^-2 s^-1 and maintained at an average temperature of 25° C. for 7 days. At the end of the incubation period, radicle length was measured. Treatments were replicated three times, and the experiment for each plant species tested was repeated three times.

[2] = tested on: Tobacco; test: Weed and crop Petri dish bioassay, radicle length; assay type: in vivo, Nicotiana tobacum L.
Experimental: as §1

[3] = tested on: Velvetleaf; test: Weed and crop Petri dish bioassay, radicle length; assay type: in vivo, Abutilon theophrasti Medicus
Experimental: (§2) m-Tyrosine activity was bioassayed using selected weed and crop species. Growth inhibition as measured by radicle elongation was evaluated in dandelion (Taraxacum officinale Weber in […].), large crabgrass (Digitaria sanguinalis (L.) Scop.), velvetleaf (Abutilon theophrasti Medicus), black medic (Medicago lupulina L.), curly cress (Lepidium sativum L.), bamyardgrass (Echinochloa crus-galli.(L.) Beauv.), lettuce (Lactuca sativa L.), purslane (Portulaca oleracea L.), annual bluegrass (Poa annua L.), birdsfoot trefoil (Lotus corniculatus L.), broadleaf plantain (Plantago major L.), mouseear chickweed (Cerastium vulgatum L.), common chickweed (Stellaria media (L.) Vill.), white clover (Trifolium repens L.), wheat (Triticum aestivum L.), tomato (Lycopersicon esculentum var. esculentum P. Mill.), tobacco (Nicotiana tobacum L.), and sorghum sudangrass hybrid (Sorghum bicolor x Sudanese). Weeds were purchased from HerbiSeeds, England, tomato seeds were purchased from Agway (Ithaca N.Y.), and wheat, sudex and tobacco where donated by Pioneer Seeds (Johnson, Iowa). Seeds were sterilized by a water: ethanol mixture (1:1) for one minute and rinsed three times thoroughly in distilled water. […] At the end of the incubation period, radicle length was measured. […]

[4] = tested on: Lettuce; test: Weed and crop Petri dish bioassay, radicle length; assay type: in vivo, Lactuca sativa L.
Experimental: as §2

[5] = Dissolution in aqueous solution; assay type: physicochemical
[6] = tested on: Escherichia coli; test: Antibacterial disc assay; assay type: cell-based
Experimental: (§3) m-Tyrosine was evaluated for its effect on several bacteria (Bacillus cereus, Bacillus subtilis, and Escherichia coli) grown on nutrient agar (Difco) plates (9 cm) and a fungal culture (Metarhizium anisopliae ([…].)) grown on potato dextrose agar (Difco) plates. These plates were spread with either 0.5 mL aliquots of a liquid bacterial culture grown for 18 h in nutrient broth or with 0.5 mL of a fungal spore suspension (1×10^6 spores/mL), and were allowed to dry for approximately 30 minutes. […] A disc moistened with 10 μl of water served as negative control, and positive controls consisted of discs spiked with ampicillin and tetracycline (5 μg). The plates were placed in an incubator at 25° C., and visually checked for zones of inhibition for up to four days. All experiments were performed in triplicate.

[7] = tested on: Bacillus subtilis; test: Antibacterial disc assay; assay type: cell-based
Experimental: as §3

[8] = tested on: Bacillus cereus; test: Antibacterial disc assay; assay type: cell-based
Experimental: as §3

[9] = tested on: onion (Allium cepa L.) root cells; test: Mitotic index of onion root tip cells; assay type: cell-based
Experimental: Root tips were stained for light microscopy examination using the Feulgen reaction. Root tips of three mm length were treated with a mixture of absolute ethanol:glacial acetic acid for two hours. The ethanol-glacial acetic acid mixture was removed and the tips were rinsed with distilled water. […] For each m-tyrosine concentration, five individual root tips were removed and macerated in a drop of 45% acetic acid on a slide, and the mitotic stages of the onion root tip cells were observed under a light microscope. […] One thousand cells were recorded per replication, resulting in observation of a total of 3000 cells per treatment. The experiment was repeated three times.

[10] = tested on: Metarhizium anisopliae (Metsch.); test: Fungal disc assay; assay type: cell-based; conditions: even at concentrations as high as 25 mM
Experimental: as §3

[11] = tested on: Mouseear chickweed; test: Weed and crop Petri dish bioassay, radicle length; assay type: in vivo, Cerastium vulgatum L.
Experimental: as §1

[12] = tested on: Wheat; test: Weed and crop Petri dish bioassay, radicle length; assay type: in vivo, Triticum aestivum L.
Experimental: as §2

[13] = tested on: Sudex; test: Weed and crop Petri dish bioassay, radicle length; assay type: in vivo, Sorghum bicolor x Sudanese
Experimental: as §2

[14] = tested on: Birdsfoot trefoil; test: Weed and crop Petri dish bioassay, radicle length; assay type: in vivo, Lotus corniculatus L.
Experimental: as §2

[15] = tested on: Dandelion; test: Weed and crop Petri dish bioassay, radicle length; assay type: in vivo, Taraxacum officinale Weber in Weggers.
Experimental: as §1

[16] = tested on: Cress; test: Weed and crop Petri dish bioassay, radicle length; assay type: in vivo, Lepidium sativum L.
Experimental: as §2

[17] = tested on: Large Crabgrass; test: Weed and crop Petri dish bioassay, radicle length; assay type: in vivo, Digitaria sanguinalis (L.) Scop.
Experimental: as §1

[18] = tested on: lettuce seedlings (Lactuca sativa L.); test: Petri-dish bioassay, radicle elongation in lettuce seedlings; assay type: in vivo; conditions: for IC50: Lactuca sativa
[19] = tested on: fine leaf fescue seedlings cultivar Intrigue; test: Autotoxicity Petri dish bioassay with fine leaf fescue seeds; assay type: in vivo, Festuca rubra L. Subsp. Commutata Gaud.; conditions: 20 μM to 160 μM

With `N[C@@H](Cc1cccc(O)c1)C(=O)O` [m-tyrosine, 3-hydroxyphenylalanine] as the molecule, how does the I10 [1] read?
Its I10 is 25 µM.

And the I100 [1]?
Its I100 is 320 µM.

What about the IC50 ([1]; Poa annua, read-out: I50) of the same molecule?
Its IC50 is 47 µM.

What about the I10 [2] of the same molecule?
The I10 was 30 µM.

What about the I100 [2] of the same molecule?
Its I100 is 160 µM.

What about the IC50 ([2]; Nicotiana tabacum, read-out: I50) of the same molecule?
Its IC50 is 40 µM.

And the I10 [3]?
The I10 was 40 µM.

What about the IC50 ([3]; Abutilon theophrasti, read-out: I50) of the same molecule?
The IC50 was 168 µM.

What about the I10 [4] of the same molecule?
Its I10 is 6 µM.

What about the IC50 ([4]; Lactuca sativa, read-out: I50) of the same molecule?
Its IC50 is 20 µM.

And the “dissolution in an aqueous solution” value [5]?
The value was “easily dissolved”.

And the “growth inhibition” value [6]?
Its value is “not inhibited”.

And the “growth inhibition” value [7]?
Its value is “not inhibited”.

What about the “growth inhibition” value [8] of the same molecule?
The value was “not inhibited”.

What about the “mitotic indices in all phases of mitosis” value ([9]; 20 μM) of the same molecule?
The value was “significantly reduced”.

And the “Anaphase, total cells observed” value ([9]; m-tyrosine 10 (μM))?
The value was 1.6%.

What about the “Metaphase, total cells observed” value ([9]; m-tyrosine 10 (μM)) of the same molecule?
Its value is 1.4%.

What about the “Prophase, total cells observed” value ([9]; m-tyrosine 10 (μM)) of the same molecule?
The value was 2.2%.

And the “Telophase, total cells observed” value ([9]; m-tyrosine 10 (μM))?
Its value is 2%.

And the “Anaphase, total cells observed” value ([9]; m-tyrosine 20 (μM))?
Its value is 1.1%.

What about the “Metaphase, total cells observed” value ([9]; m-tyrosine 20 (μM)) of the same molecule?
The value was 1%.

And the “Prophase, total cells observed” value ([9]; m-tyrosine 20 (μM))?
The value was 2%.

And the “Telophase, total cells observed” value ([9]; m-tyrosine 20 (μM))?
Its value is 1%.

What about the “Anaphase, total cells observed” value ([9]; m-tyrosine 40 (μM)) of the same molecule?
The value was 0.6%.

What about the “Metaphase, total cells observed” value ([9]; m-tyrosine 40 (μM)) of the same molecule?
The value was 0.4%.

And the “Prophase, total cells observed” value ([9]; m-tyrosine 40 (μM))?
Its value is 1%.

What about the “Telophase, total cells observed” value ([9]; m-tyrosine 40 (μM)) of the same molecule?
The value was 0.2%.

What about the “Anaphase, total cells observed” value ([9]; m-tyrosine 80 (μM)) of the same molecule?
Its value is 0.5%.

What about the “Metaphase, total cells observed” value ([9]; m-tyrosine 80 (μM)) of the same molecule?
Its value is 0%.

What about the “Prophase, total cells observed” value ([9]; m-tyrosine 80 (μM)) of the same molecule?
Its value is 0.5%.

What about the “Telophase, total cells observed” value ([9]; m-tyrosine 80 (μM)) of the same molecule?
The value was 0.2%.

What about the “Anaphase, total cells observed” value ([9]; m-tyrosine 160 (μM)) of the same molecule?
The value was 0%.

What about the “Metaphase, total cells observed” value ([9]; m-tyrosine 160 (μM)) of the same molecule?
The value was 0%.

What about the “Prophase, total cells observed” value ([9]; m-tyrosine 160 (μM)) of the same molecule?
Its value is 0.2%.

And the “Telophase, total cells observed” value ([9]; m-tyrosine 160 (μM))?
Its value is 0.3%.

And the “sensitivity of fungal cultures” value [10]?
Its value is “not sensitive”.

And the I10 [11]?
Its I10 is 6 µM.

And the I100 [11]?
The I100 was 47 µM.

And the IC50 ([11]; Cerastium, read-out: I50)?
Its IC50 is 9 µM.

And the I10 [12]?
Its I10 is 80 µM.

What about the IC50 ([12]; Triticum aestivum, read-out: I50) of the same molecule?
The IC50 was 157 µM.

And the I10 [13]?
The I10 was 50 µM.

And the IC50 ([13]; Sorghum bicolor, read-out: I50)?
Its IC50 is 151 µM.

What about the I10 [14] of the same molecule?
The I10 was 20 µM.

And the IC50 ([14]; Lotus corniculatus, read-out: I50)?
The IC50 was 42 µM.

And the I10 [15]?
Its I10 is 10 µM.

What about the I100 [15] of the same molecule?
The I100 was 160 µM.

What about the IC50 ([15]; Taraxacum officinale, read-out: I50) of the same molecule?
Its IC50 is 39 µM.

What about the I10 [16] of the same molecule?
The I10 was 15 µM.

What about the IC50 ([16]; Lepidium sativum, read-out: I50) of the same molecule?
The IC50 was 23 µM.

What about the I10 [17] of the same molecule?
Its I10 is 20 µM.

And the I100 [17]?
Its I100 is 320 µM.

And the IC50 ([17]; Digitaria sanguinalis, read-out: I50)?
The IC50 was 38 µM.

What about the “reduction of root elongation of lettuce seedlings” value ([18]; 20 μM loaded on filter paper) of the same molecule?
Its value is 64%.

What about the IC50 ([18]; lettuce seedlings at 72 h, read-out: concentration for 50% reduction of root growth) of the same molecule?
The IC50 was 17 µM.

What about the IC50 ([18]; soil-less assay, read-out: I50, 50% inhibition of root growth of lettuce) of the same molecule?
The IC50 was about 8 µM.

And the “root elongation of pre-germinated lettuce seeds” value ([18]; solutions added to pre-germinated seeds)?
The value was “strongly inhibited”.

What about the “root elongation of fescue seedlings” value [19] of the same molecule?
Its value is “not affected; also recorded: No inhibition”.

Source: patent US8461085B2, “Bioherbicide from Festuca spp” (Cornell Research Foundation, Inc., priority 2005, dated 2013)
